Assays:
Rattus norvegicus [1] = test: Antiinflammatory activity in Wistar rat assessed as protection against carrageenan-induced paw edema at 100 mg/kg, po administered 1 hr before carrageenan challenge measured after 4 hrs relative to control; type: functional
Rattus norvegicus [2] = test: Analgesic activity in Wistar rat assessed as inhibition of acetic acid-induced writhing at 100 mg/kg, po administered 1 hr before acetic acid challenge measured after 30 mins relative to control; type: functional
[3] = target: T1, Prostaglandin G/H synthase 2 (Homo sapiens) (UniProt P35354); test: Inhibition of COX2 in human whole blood at 10 uM
T1 sequence (whole entry): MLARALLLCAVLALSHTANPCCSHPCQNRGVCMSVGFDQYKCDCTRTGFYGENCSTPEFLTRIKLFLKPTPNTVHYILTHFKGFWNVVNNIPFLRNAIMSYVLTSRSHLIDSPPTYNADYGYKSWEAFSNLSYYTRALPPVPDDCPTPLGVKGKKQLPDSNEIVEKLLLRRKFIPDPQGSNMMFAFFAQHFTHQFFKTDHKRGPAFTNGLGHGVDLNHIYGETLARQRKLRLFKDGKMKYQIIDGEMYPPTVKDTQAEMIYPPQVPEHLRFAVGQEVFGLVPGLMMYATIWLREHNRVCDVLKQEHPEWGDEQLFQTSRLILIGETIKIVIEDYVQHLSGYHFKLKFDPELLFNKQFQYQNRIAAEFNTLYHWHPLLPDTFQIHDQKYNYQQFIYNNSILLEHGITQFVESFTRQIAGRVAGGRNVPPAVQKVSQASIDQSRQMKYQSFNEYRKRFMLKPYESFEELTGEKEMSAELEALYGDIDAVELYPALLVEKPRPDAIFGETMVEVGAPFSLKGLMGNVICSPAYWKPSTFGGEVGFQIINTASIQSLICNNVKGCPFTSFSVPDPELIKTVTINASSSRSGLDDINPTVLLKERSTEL

Rattus norvegicus [4] = test: Ulcerogenicity in fasted Wistar rat assessed as ulceration at 300 mg/kg, po administered every 2 hrs; type: toxicity, organism-based; set-up: dose 300 mg/kg, route oral; settings: in vivo

## CCOC(=O)c1nnc(C2=NN(c3ccccc3)C(c3ccc(Cl)cc3)C2)o1 (racemic)
Rattus norvegicus [1]
  Activity: 4.5%

## Cc1nnc(C2=NN(c3ccccc3)C(c3ccc(Cl)cc3)C2)o1 (racemic)
Rattus norvegicus [1]
  Activity: 16.45%

## O=C(O)Cc1nnc(C2=NN(c3ccccc3)C(c3ccc(Cl)cc3)C2)o1 (racemic)
Rattus norvegicus [1]
  Activity: 7.46%

## Nc1nnc(C2=NN(c3ccccc3)C(c3ccc(Cl)cc3)C2)o1 (racemic)
Rattus norvegicus [1]
  Activity: 4.5%

## NS(=O)(=O)c1ccc(N2N=C(c3nn[nH]n3)CC2c2ccc(Cl)cc2)cc1 (racemic)
Rattus norvegicus [2]
  inhibition in vivo at 100 mg/kg: 30.1%
Rattus norvegicus [1]
  Activity: 54.58%
[3]
  inhibition: 7%
Rattus norvegicus [4]
  Activity: Non-toxic

## Cn1nnc(C2=NN(c3ccccc3)C(c3ccc(Cl)cc3)C2)n1 (racemic)
Rattus norvegicus [1]
  Activity: 34.31%

## FC(F)(F)c1nnc(C2=NN(c3ccccc3)C(c3ccc(Cl)cc3)C2)o1 (racemic)
Rattus norvegicus [1]
  Activity: -46.9%

## Oc1nnc(C2=NN(c3ccccc3)C(c3ccc(Cl)cc3)C2)o1 (racemic)
Rattus norvegicus [1]
  Activity: 24.26%

## NS(=O)(=O)c1ccc(N2N=C(c3nnc(O)o3)CC2c2ccc(Cl)cc2)cc1 (racemic)
Rattus norvegicus [1]
  Activity: 35.38%

## O=C(O)c1nnc(C2=NN(c3ccccc3)C(c3ccc(Cl)cc3)C2)o1 (racemic)
Rattus norvegicus [1]
  Activity: -19.3%

## Nc1nnc(C2=NN(c3ccc(S(N)(=O)=O)cc3)C(c3ccc(Cl)cc3)C2)o1 (racemic)
Rattus norvegicus [1]
  Activity: 18.38%

## FC(F)(F)c1nc(C2=NN(c3ccccc3)C(c3ccc(Cl)cc3)C2)no1 (racemic)
Rattus norvegicus [2]
  inhibition in vivo at 100 mg/kg: 15.8%
Rattus norvegicus [1]
  Activity: 49.45%
[3]
  inhibition: 6%
Rattus norvegicus [4]
  Activity: Non-toxic

## O=C(O)Cc1nc(C2=NN(c3ccccc3)C(c3ccc(Cl)cc3)C2)no1 (racemic)
Rattus norvegicus [1]
  Activity: 7.08%

## NS(=O)(=O)c1ccc(N2N=C(c3nnc(S)o3)CC2c2ccc(Cl)cc2)cc1 (racemic)
Rattus norvegicus [1]
  Activity: 36.76%

## NS(=O)(=O)c1ccc(N2N=C(c3noc(S)n3)CC2c2ccc(Cl)cc2)cc1 (racemic)
Rattus norvegicus [1]
  Activity: 48.82%

## Sc1nnc(C2=NN(c3ccccc3)C(c3ccc(Cl)cc3)C2)o1 (racemic)
Rattus norvegicus [1]
  Activity: 32.74%

## Cn1nnc(C2=NN(c3ccc(S(N)(=O)=O)cc3)C(c3ccc(Cl)cc3)C2)n1 (racemic)
Rattus norvegicus [2]
  inhibition in vivo at 100 mg/kg: 23.7%
Rattus norvegicus [1]
  Activity: 48.58%
[3]
  inhibition: 11%
Rattus norvegicus [4]
  Activity: Non-toxic

## Sc1nc(C2=NN(c3ccccc3)C(c3ccc(Cl)cc3)C2)no1 (stereo not given)
Rattus norvegicus [1]
  Activity: 40.51%

## CCOC(=O)Cc1nnc(C2=NN(c3ccccc3)C(c3ccc(Cl)cc3)C2)o1 (racemic)
Rattus norvegicus [1]
  Activity: -17.6%

## CSc1nnc(C2=NN(c3ccccc3)C(c3ccc(Cl)cc3)C2)s1 (racemic)
Rattus norvegicus [1]
  Activity: 11.84%

## O=C([O-])Cc1ccccc1Nc1c(Cl)cccc1Cl.[Na+] [DICLOFENAC SODIUM]
Rattus norvegicus [2]
  inhibition in vivo at 100 mg/kg: 76.6%
Rattus norvegicus [1]
  Activity: 50.93%
Rattus norvegicus [4]
  Activity: Toxic

## N#CC1=NN(c2ccccc2)C(c2ccc(Cl)cc2)C1 (racemic)
Rattus norvegicus [1]
  Activity: 39.43%

## Clc1ccc(C2CC(c3nn[nH]n3)=NN2c2ccccc2)cc1 (stereo not given)
Rattus norvegicus [1]
  Activity: 37.8%

## CCOC(=O)c1nc(C2=NN(c3ccccc3)C(c3ccc(Cl)cc3)C2)no1 (racemic)
Rattus norvegicus [1]
  Activity: 20.35%

## O=C(O)c1nc(C2=NN(c3ccccc3)C(c3ccc(Cl)cc3)C2)no1 (racemic)
Rattus norvegicus [1]
  Activity: 14.4%

## N#CC1=NN(c2ccc(S(N)(=O)=O)cc2)C(c2ccc(Cl)cc2)C1 (racemic)
Rattus norvegicus [1]
  Activity: 49.67%

## NS(=O)(=O)c1ccc(N2N=C(c3noc(O)n3)CC2c2ccc(Cl)cc2)cc1 (racemic)
Rattus norvegicus [1]
  Activity: 46.18%

## CCOC(=O)Cc1nc(C2=NN(c3ccccc3)C(c3ccc(Cl)cc3)C2)no1 (racemic)
Rattus norvegicus [1]
  Activity: 30.94%

## Oc1nc(C2=NN(c3ccccc3)C(c3ccc(Cl)cc3)C2)no1 (racemic)
Rattus norvegicus [1]
  Activity: 32.68%

## Cc1nc(C2=NN(c3ccccc3)C(c3ccc(Cl)cc3)C2)no1 (racemic)
Rattus norvegicus [2]
  inhibition in vivo at 100 mg/kg: 23.7%
Rattus norvegicus [1]
  Activity: 49.24%
[3]
  inhibition: 4%
Rattus norvegicus [4]
  Activity: Non-toxic

## CSc1nnc(C2=NN(c3ccc(S(N)(=O)=O)cc3)C(c3ccc(Cl)cc3)C2)s1 (racemic)
Rattus norvegicus [1]
  Activity: 26.12%

— ChEMBL document CHEMBL1909631, “Synthesis and anti-inflammatory activity of some new 4,5-dihydro-1,5-diaryl-1H-pyrazole-3-substituted-heteroazole derivatives” (Bioorg Med Chem Lett, 2011)
